Source: paper PMC11966747, “Next Generation Risk Assessment of Acute Neurotoxicity from Organophosphate Exposures Using the In Vitro–In Silico Derived Dietary Comparator Ratio” (Environmental Science & Technology, 2025)
Read-outs that look alike come from different tables or passages of the source.

Legend:
[1] = QSAR-based prediction; ref Punt et al. 2022; Moerenhout et al. 2024; cited from earlier work
[2] = target: T1, erythrocyte AChE (Homo sapiens, UniProt P22303); assay: Exposure Activity Ratio (EAR) and Dietary Comparator Ratio (DCR) calculation; design: from tissue; host or cells: human whole peripheral blood (erythrocytes), K2EDTA anticoagulant; conditions: human
T1 sequence (P22303 32-617 isoform P22303-2 limits assumed): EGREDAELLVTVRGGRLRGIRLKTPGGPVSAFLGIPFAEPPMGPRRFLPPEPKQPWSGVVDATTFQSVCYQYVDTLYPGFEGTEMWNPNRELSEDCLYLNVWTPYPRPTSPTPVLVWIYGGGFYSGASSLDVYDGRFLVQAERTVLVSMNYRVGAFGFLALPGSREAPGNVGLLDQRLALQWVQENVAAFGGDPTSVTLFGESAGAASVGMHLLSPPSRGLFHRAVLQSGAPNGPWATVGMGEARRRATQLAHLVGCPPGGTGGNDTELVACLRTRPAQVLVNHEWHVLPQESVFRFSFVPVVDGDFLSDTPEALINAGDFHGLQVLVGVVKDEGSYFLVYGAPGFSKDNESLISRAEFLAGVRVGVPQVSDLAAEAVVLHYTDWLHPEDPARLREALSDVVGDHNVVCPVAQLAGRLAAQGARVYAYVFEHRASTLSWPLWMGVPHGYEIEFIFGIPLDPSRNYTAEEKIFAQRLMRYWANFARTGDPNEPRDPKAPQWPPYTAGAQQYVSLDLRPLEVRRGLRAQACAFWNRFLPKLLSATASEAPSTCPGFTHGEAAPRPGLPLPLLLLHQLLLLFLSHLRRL
Method: The DCR value for an exposure scenario was calculated as the ratio of EARtest and EARcomparator (eq 1). The EARtest is scenario-specific and was defined with the IC50 of the tested organophosphate oxon for in vitro erythrocyte AChE inhibition and the PBK model-simulated CBmaxoxon at the defined exposure level (eq 2).
The DCR-based predictions were evaluated by comparing the obtained DCR results with actual knowledge of the adverse health effects reported for the respective exposure scenarios. Adverse effects cannot be ruled out for human exposure scenarios with a DCR result greater than 1, while exposure scenarios with a DCR result less than or equal to 1 are considered to raise no safety concern.[18]−[20] Once validated as an adequate predicting tool, the DCR approach was applied for evaluating the safety of exposure scenarios, for which no information on the resulting toxic outcomes was reported at the defined dose levels for humans.

[3] = target: T1, erythrocyte AChE; conditions: cited from earlier work; for reported or expected adverse health outcome: human, ref Table S2
[4] = 214 mg/kg BW (15 g) acute oral, person, ref Klemmer et al. 1978
[5] = 357 mg/kg BW (25 g) acute oral, person seven, ref Klemmer et al. 1978
[6] = 357 mg/kg BW (25 g) acute oral, person six, ref Klemmer et al. 1978
[7] = 643 mg/kg BW (45 g) acute oral, person, ref Klemmer et al. 1978

SMILES: CCOP(=S)(OCC)Oc1cc(C)nc(C(C)C)n1 [diazinon]
- Oral absorption rate constant [1]: 0.73 h⁻¹
- calculated DCR value ([2]; single oral 0.011 mg/kg BW): 2.1 × 10^–4
- calculated EARtest value ([2]; single oral 0.011 mg/kg BW): 8.3 × 10^–6
- calculated DCR value ([2]; single oral 0.03 mg/kg BW): 5.7 × 10^–4
- calculated EARtest value ([2]; single oral 0.03 mg/kg BW): 2.3 × 10^–5
- calculated DCR value ([2]; single oral 0.12 mg/kg BW): 2.3 × 10^–3
- calculated EARtest value ([2]; single oral 0.12 mg/kg BW): 9.1 × 10^–5
- calculated DCR value ([2]; single oral 0.20 mg/kg BW): 3.8 × 10^–3
- calculated EARtest value ([2]; single oral 0.20 mg/kg BW): 1.5 × 10^–4
- calculated EARtest value ([2]; single oral 0.21 mg/kg BW): 1.6 × 10^–4
- calculated EARtest value ([2]; single oral 0.30 mg/kg BW): 2.3 × 10^–4
- calculated DCR value ([2]; single oral 200 mg/kg BW): 2.1
- calculated EARtest value ([2]; single oral 200 mg/kg BW): 0.084
- calculated DCR value ([2]; single oral 214 mg/kg BW): 2.2
- calculated EARtest value ([2]; single oral 214 mg/kg BW): 0.085
- calculated DCR value ([2]; single oral 293 mg/kg BW): 2.3
- calculated EARtest value ([2]; single oral 293 mg/kg BW): 0.089
- calculated DCR value ([2]; single oral 323 mg/kg BW): 2.3
- calculated EARtest value ([2]; single oral 323 mg/kg BW): 0.090
- calculated DCR value ([2]; single oral 357 mg/kg BW): 2.3
- calculated EARtest value ([2]; single oral 357 mg/kg BW): 0.091
- calculated DCR value ([2]; single oral 429 mg/kg BW): 2.3
- calculated EARtest value ([2]; single oral 429 mg/kg BW): 0.093
- calculated DCR value ([2]; single oral 643 mg/kg BW): 2.4
- calculated EARtest value ([2]; single oral 643 mg/kg BW): 0.095
- Reported erythrocyte AChE activity/inhibition ([3]; 0.011 mg/kg BW single oral, 4 male and 1 female volunteers, ref Garfitt et al. 2002): No erythrocyte AChE inhibition
- Reported erythrocyte AChE activity/inhibition ([3]; 0.03 mg/kg BW single oral, 7 male volunteers, ref APVMA. 2011, US EPA. 2001 (original data of Boyeson. 2000)): No erythrocyte AChE inhibition
- Reported erythrocyte AChE activity/inhibition ([3]; 0.12 mg/kg BW single oral, 7 male volunteers, ref APVMA. 2011, US EPA. 2001 (original data of Boyeson. 2000)): No erythrocyte AChE inhibition
- Reported erythrocyte AChE activity/inhibition ([3]; 0.20 mg/kg BW single oral, 7 male volunteers, ref APVMA. 2011, US EPA. 2001 (original data of Boyeson. 2000)): No erythrocyte AChE inhibition
- Reported erythrocyte AChE activity/inhibition ([3]; 0.21 mg/kg BW single oral, 7 male volunteers, APVMA: significant inhibition, US EPA: limited, ref APVMA. 2011, US EPA. 2001 (original data of Boyeson. 2000)): Conflicting opinions
- Reported concomitant effects (signs and symptoms) ([3]; 0.21 mg/kg BW single oral, 7 male volunteers, might occur, ref APVMA. 2011, US EPA. 2001 (original data of Boyeson. 2000)): Mild clinical signs or symptoms
- Reported erythrocyte AChE activity/inhibition ([3]; 0.30 mg/kg BW single oral, 1 volunteer, APVMA: inhibition greater than at 0.20 mg/kg BW, US EPA: no inhibition, ref APVMA. 2011, US EPA. 2001 (original data of Boyeson. 2000)): Conflicting opinions
- Reported concomitant effects (signs and symptoms) ([3]; 0.30 mg/kg BW single oral, 1 volunteer, might occur, ref APVMA. 2011, US EPA. 2001 (original data of Boyeson. 2000)): Mild clinical signs or symptoms
- Reported concomitant effects (signs and symptoms) ([3]; 200 mg/kg BW (14 - 57 g) acute oral, 14 males and 11 females, ref APVMA. 2011 (original data of Mutalik et al. 1962)): Toxic symptoms occurred
- Reported concomitant effects (signs and symptoms) [3, 4]: toxic symptoms occurred
- Reported erythrocyte AChE activity/inhibition [3, 4]: Significantly decreased
- Reported concomitant effects (signs and symptoms) ([3]; 293 mg/kg BW (22 g) acute oral, person, ref Poklis et al. 1980): Died
- Reported concomitant effects (signs and symptoms) ([3]; 323 mg/kg BW (22.6 g) acute oral, person, ref APVMA. 2011 (original data of Banerjee. 1967)): Toxic symptoms occurred
- Reported concomitant effects (signs and symptoms) [3, 5]: toxic symptoms occurred
- Reported erythrocyte AChE activity/inhibition [3, 5]: Significantly decreased
- Reported concomitant effects (signs and symptoms) [3, 6]: toxic symptoms occurred
- Reported erythrocyte AChE activity/inhibition [3, 6]: Significantly decreased
- Reported concomitant effects (signs and symptoms) ([3]; 429 mg/kg BW (30 g) acute oral, person, ref Martinez-Chuecos et al. 1992): Toxic symptoms occurred
- Reported concomitant effects (signs and symptoms) [3, 7]: toxic symptoms occurred
- Reported erythrocyte AChE activity/inhibition [3, 7]: Significantly decreased
- reported or expected adverse health outcome ([3]; single oral 0.011 mg/kg BW, 0.011 mg/kg): negative
- reported or expected adverse health outcome ([3]; single oral 0.011 mg/kg BW, listed as Diazinon, 0.011 mg/kg): No
- reported or expected adverse health outcome ([3]; single oral 0.03 mg/kg BW, 0.03 mg/kg): negative
- reported or expected adverse health outcome ([3]; single oral 0.03 mg/kg BW, listed as Diazinon, 0.03 mg/kg): No
- reported or expected adverse health outcome ([3]; single oral 0.12 mg/kg BW, 0.12 mg/kg): negative
- reported or expected adverse health outcome ([3]; single oral 0.12 mg/kg BW, listed as Diazinon, 0.12 mg/kg): No
- reported or expected adverse health outcome ([3]; single oral 0.20 mg/kg BW, 0.2 mg/kg): negative
- reported or expected adverse health outcome ([3]; single oral 0.20 mg/kg BW, listed as Diazinon, 0.2 mg/kg): No
- reported or expected adverse health outcome ([3]; single oral 200 mg/kg BW, 200 mg/kg): positive
- reported or expected adverse health outcome ([3]; single oral 200 mg/kg BW, listed as Diazinon, 200 mg/kg): Yes
- reported or expected adverse health outcome ([3]; single oral 214 mg/kg BW, 214 mg/kg): positive
- reported or expected adverse health outcome ([3]; single oral 214 mg/kg BW, listed as Diazinon, 214 mg/kg): Yes
- reported or expected adverse health outcome ([3]; single oral 293 mg/kg BW, 293 mg/kg): positive
- reported or expected adverse health outcome ([3]; single oral 293 mg/kg BW, listed as Diazinon, 293 mg/kg): Yes
- reported or expected adverse health outcome ([3]; single oral 323 mg/kg BW, 323 mg/kg): positive
- reported or expected adverse health outcome ([3]; single oral 323 mg/kg BW, listed as Diazinon, 323 mg/kg): Yes
- reported or expected adverse health outcome ([3]; single oral 357 mg/kg BW, 357 mg/kg): positive
- reported or expected adverse health outcome ([3]; single oral 357 mg/kg BW, listed as Diazinon, 357 mg/kg): Yes
- reported or expected adverse health outcome ([3]; single oral 429 mg/kg BW, 429 mg/kg): positive
- reported or expected adverse health outcome ([3]; single oral 429 mg/kg BW, listed as Diazinon, 429 mg/kg): Yes
- reported or expected adverse health outcome ([3]; single oral 643 mg/kg BW, 643 mg/kg): positive
- reported or expected adverse health outcome ([3]; single oral 643 mg/kg BW, listed as Diazinon, 643 mg/kg): Yes
